In US5817692A, “Endoperoxides useful as antiparasitic agents” (priority 1996, dated 1998):
Like-named read-outs stand apart in the source and are kept apart here.

Key:
L929 cells = experiment: cytotoxicity to L929 cells, MTT assay (viability and replication); format: cell-based; design: Toxicity, Mean: unit not given here; settings: for Toxicity, Score / Toxicity, Mean / inhibition at 0.1 µM / inhibition at 1 µM / inhibition at 10 µM / inhibition at 50 µM: L929 cells; for Toxicity, Mean: MTT; for inhibition at 0.1 µM / inhibition at 1 µM / inhibition at 10 µM / inhibition at 50 µM: Mus musculus, read-out: Toxicity, % of control (inhibition)
Protocol: Toxoplasma gondii is the causative agent of cerebral toxoplasmic encephalitis, an AIDS-related opportunistic infection. The biological activity of the endoperoxide JHU 2886 of the present invention was measured against Toxoplasma gondii cultured in L929 cells.
More specifically, the cytotoxicity of synthetic organic endoperoxide JHU 2886 was tested in L929 cells by measuring the viability and replication of exposed cells. The cytotoxicity of the compound to the cultured cells was measured using the MTT assay (Promega kit), according to the procedure of Carmichael et al. (18). MTT is an abbreviation for [3-(4,5-dimethylthiazol-2-yl)-2,5-dephenyltetrazolium bromide].
This compound is referred to as JHU 2886 in Table 1. In this experiment atovaquone and artemisinin were used as positive controls. Atovaquone is a broad-spectrum anti-infective drug having antimalarial and antitoxoplasmosis activity (19).
^1 The cytotoxicity of each compound for the cultured cells was
measured using the MTT assay (Promega kit) and inhibition of the […]

Toxoplasma gondii = experiment: inhibition of intracellular replication of T. gondii in infected L929 cells, uracil incorporation assay; format: cell-based; design: Activity, Mean: unit not given here; settings: for Activity, Mean: uracil incorporation; for inhibition at 1 µM / inhibition at 10 µM / inhibition at 50 µM / inhibition at 0.1 µM: Toxoplasma gondii, L929, read-out: Activity, % of control (inhibition)
Protocol: Toxoplasma gondii is the causative agent of cerebral toxoplasmic encephalitis, an AIDS-related opportunistic infection. The biological activity of the endoperoxide JHU 2886 of the present invention was measured against Toxoplasma gondii cultured in L929 cells. The inhibitory activity of the synthetic organic endoperoxide was tested by measuring the intracellular replication of T. gondii in infected L929 cells. The inhibition of the intracellular replication of T. gondii was determined using the uracil incorporation assay (20). […] This compound is referred to as JHU 2886 in Table 1. In this experiment atovaquone and artemisinin were used as positive controls. Atovaquone is a broad-spectrum anti-infective drug having antimalarial and antitoxoplasmosis activity (19). | measured using the MTT assay (Promega kit) and inhibition of the | intracellular replication of T. gondii was determined using the uracil | incorporation assay.

What does the source list for c1ccc(C23CCCC(c4ccccc4)(CC2)OO3)cc1 [JHU 2886]?
toxicity in L929 cells, in words (L929 cells; 50 μM): some toxicity; toxicity in L929 cells, in words (L929 cells; 24, 48 and 72 hours, concentrations as high as 10 μM): little toxicity; Toxicity, Score (L929 cells; 24 hours, dose 0.1 μM): 1 (≤20%); Toxicity, Mean (L929 cells; 24 hours, dose 0.1 μM): 0.129; Toxicity, Score (L929 cells; 24 hours, dose 1.0 μM): 0; Toxicity, Mean (L929 cells; 24 hours, dose 1.0 μM): 0.133; Toxicity, Score (L929 cells; 24 hours, dose 10.0 μM): 0; Toxicity, Mean (L929 cells; 24 hours, dose 10.0 μM): 0.130; Toxicity, Score (L929 cells; 24 hours, dose 50.0 μM): 2 (>20%-≤40%); Toxicity, Mean (L929 cells; 24 hours, dose 50.0 μM): 0.089; Toxicity, Score (L929 cells; 48 hours, dose 0.1 μM): 0; Toxicity, Mean (L929 cells; 48 hours, dose 0.1 μM): 0.227; Toxicity, Score (L929 cells; 48 hours, dose 1.0 μM): 0; Toxicity, Mean (L929 cells; 48 hours, dose 1.0 μM): 0.219; Toxicity, Score (L929 cells; 48 hours, dose 10.0 μM): 0; Toxicity, Mean (L929 cells; 48 hours, dose 10.0 μM): 0.217; Toxicity, Score (L929 cells; 48 hours, dose 50.0 μM): 2 (>20%-≤40%); Toxicity, Mean (L929 cells; 48 hours, dose 50.0 μM): 0.147; Toxicity, Score (L929 cells; 72 hours, dose 0.1 μM): 0; Toxicity, Mean (L929 cells; 72 hours, dose 0.1 μM): 0.479; Toxicity, Score (L929 cells; 72 hours, dose 1.0 μM): 0; Toxicity, Mean (L929 cells; 72 hours, dose 1.0 μM): 0.460; Toxicity, Score (L929 cells; 72 hours, dose 10.0 μM): 0; Toxicity, Mean (L929 cells; 72 hours, dose 10.0 μM): 0.448; Toxicity, Score (L929 cells; 72 hours, dose 50.0 μM): 2 (>20%-≤40%); Toxicity, Mean (L929 cells; 72 hours, dose 50.0 μM): 0.275; inhibition at 0.1 µM (L929 cells; 24 hours, dose 0.1 μM): 0.26%; inhibition at 1 µM (L929 cells; 24 hours, dose 1.0 μM): 0%; inhibition at 10 µM (L929 cells; 24 hours, dose 10.0 μM): 0%; inhibition at 50 µM (L929 cells; 24 hours, dose 50.0 μM): 31.2%; inhibition at 0.1 µM (L929 cells; 48 hours, dose 0.1 μM): 0%; inhibition at 1 µM (L929 cells; 48 hours, dose 1.0 μM): 0%; inhibition at 10 µM (L929 cells; 48 hours, dose 10.0 μM): 0%; inhibition at 50 µM (L929 cells; 48 hours, dose 50.0 μM): 30.4%; inhibition at 0.1 µM (L929 cells; 72 hours, dose 0.1 μM): 0%; inhibition at 1 µM (L929 cells; 72 hours, dose 1.0 μM): 0%; inhibition at 10 µM (L929 cells; 72 hours, dose 10.0 μM): 0%; inhibition at 50 µM (L929 cells; 72 hours, dose 50.0 μM): 37.4%; antiparasitic activity, in words (Toxoplasma gondii; 24 and 48 hours, all concentrations tested): significant antiparasitic activity; Activity, Score (Toxoplasma gondii; 24 hours, dose 0.1 μM): 2 (>20%-≤40%); Activity, Mean (Toxoplasma gondii; 24 hours, dose 0.1 μM): 6079; Activity, Score (Toxoplasma gondii; 24 hours, dose 1.0 μM): 3 (>40%-≤70%); Activity, Mean (Toxoplasma gondii; 24 hours, dose 1.0 μM): 2668; Activity, Score (Toxoplasma gondii; 24 hours, dose 10.0 μM): 4 (>70%-≤90%); Activity, Mean (Toxoplasma gondii; 24 hours, dose 10.0 μM): 1967; Activity, Score (Toxoplasma gondii; 24 hours, dose 50.0 μM): 4 (>70%-≤90%); Activity, Mean (Toxoplasma gondii; 24 hours, dose 50.0 μM): 2104; Activity, Score (Toxoplasma gondii; 48 hours, dose 0.1 μM): 1 (≤20%); Activity, Mean (Toxoplasma gondii; 48 hours, dose 0.1 μM): 14841; Activity, Score (Toxoplasma gondii; 48 hours, dose 1.0 μM): 1 (≤20%); Activity, Mean (Toxoplasma gondii; 48 hours, dose 1.0 μM): 12880; Activity, Score (Toxoplasma gondii; 48 hours, dose 10.0 μM): 4 (>70%-≤90%); Activity, Mean (Toxoplasma gondii; 48 hours, dose 10.0 μM): 4428; Activity, Score (Toxoplasma gondii; 48 hours, dose 50.0 μM): 4 (>70%-≤90%); Activity, Mean (Toxoplasma gondii; 48 hours, dose 50.0 μM): 1808; antiparasitic activity, in words (Toxoplasma gondii; 72 hours, 1 μM and above): significant activity; Activity, Score (Toxoplasma gondii; 72 hours, dose 0.1 μM): 1 (≤20%); Activity, Mean (Toxoplasma gondii; 72 hours, dose 0.1 μM): 6934; Activity, Score (Toxoplasma gondii; 72 hours, dose 1.0 μM): 1 (≤20%); Activity, Mean (Toxoplasma gondii; 72 hours, dose 1.0 μM): 6219; Activity, Score (Toxoplasma gondii; 72 hours, dose 10.0 μM): 4 (>70%-≤90%); Activity, Mean (Toxoplasma gondii; 72 hours, dose 10.0 μM): 1321; Activity, Score (Toxoplasma gondii; 72 hours, dose 50.0 μM): 4 (>70%-≤90%); Activity, Mean (Toxoplasma gondii; 72 hours, dose 50.0 μM): 1252; inhibition at 1 µM (Toxoplasma gondii; 24 hours, dose 1.0 μM): 69.6%; inhibition at 10 µM (Toxoplasma gondii; 24 hours, dose 10.0 μM): 77.6%; inhibition at 50 µM (Toxoplasma gondii; 24 hours, dose 50.0 μM): 76%; inhibition at 0.1 µM (Toxoplasma gondii; 48 hours, dose 0.1 μM): 6.18%; inhibition at 1 µM (Toxoplasma gondii; 48 hours, dose 1.0 μM): 18.6%; inhibition at 10 µM (Toxoplasma gondii; 48 hours, dose 10.0 μM): 72%; inhibition at 50 µM (Toxoplasma gondii; 48 hours, dose 50.0 μM): 88.6%; inhibition at 0.1 µM (Toxoplasma gondii; 72 hours, dose 0.1 μM): 3.24%; inhibition at 1 µM (Toxoplasma gondii; 72 hours, dose 1.0 μM): 13.2%; inhibition at 10 µM (Toxoplasma gondii; 72 hours, dose 10.0 μM): 81.6%; inhibition at 50 µM (Toxoplasma gondii; 72 hours, dose 50.0 μM): 82.5%
